Measured values taken from PubChem BioAssay (NCI).
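Following 48 hours of exposure in 96-well plates, responses at five concentrations were used to interpolate endpoints linearly. Abbreviation: GI50, concentration required for 50% inhibition of growth. TGI denotes the concentration required for complete inhibition of growth.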

Legend:
Experiment in all cases: NCI tumour cell line growth inhibition, 48 h
NCI-H460 lung = system: NCI-H460 lung
SW-620 colon = system: SW-620 colon
SF-295 CNS = system: SF-295 CNS
U251 CNS = system: U251 CNS
MCF7 breast = system: MCF7 breast
SK-MEL-5 melanoma = system: SK-MEL-5 melanoma
CAKI-1 renal = system: CAKI-1 renal
SR leukemia = system: SR leukemia

CCOC(=O)Nc1ccc2nc(-c3cscn3)[nH]c2c1
GI50 (NCI-H460 lung): 4.05 µM
TGI (NCI-H460 lung): > 100 µM
GI50 (SW-620 colon): 2950 nM
TGI (SW-620 colon): > 100 µM
GI50 (SF-295 CNS): 4.78 µM
TGI (SF-295 CNS): 57.6 µM
GI50 (U251 CNS): 4.05 µM
TGI (U251 CNS): > 100 µM
GI50 (MCF7 breast): 2680 nM
TGI (MCF7 breast): > 100 µM
GI50 (SK-MEL-5 melanoma): 3.33 µM
TGI (SK-MEL-5 melanoma): > 49.1 µM
GI50 (CAKI-1 renal): 5.63 µM
TGI (CAKI-1 renal): > 100 µM

Cc1cccc(N2C(=O)/C(=C/C(Cl)=C/c3ccc([N+](=O)[O-])cc3)SC2=S)c1C
GI50 (SR leukemia): 0.404 µM
TGI (SR leukemia): > 100 µM
GI50 (SW-620 colon): 1950 nM
TGI (SW-620 colon): 4.77 µM
GI50 (SF-295 CNS): 2.28 µM
TGI (SF-295 CNS): 5.25 µM
GI50 (U251 CNS): 1.95 µM
TGI (U251 CNS): 5.94 µM
GI50 (MCF7 breast): 786 nM
TGI (MCF7 breast): > 100 µM
GI50 (SK-MEL-5 melanoma): 1.49 µM
TGI (SK-MEL-5 melanoma): 2.91 µM

NC(N)=N/N=C\c1ccc(OCc2ccccc2)cc1
GI50 (NCI-H460 lung): 1.77 µM
TGI (NCI-H460 lung): 3.47 µM
GI50 (SW-620 colon): 1640 nM
TGI (SW-620 colon): 3.3 µM
GI50 (SF-295 CNS): 2.25 µM
TGI (SF-295 CNS): 7.02 µM
GI50 (U251 CNS): 1.62 µM
TGI (U251 CNS): 3.17 µM
GI50 (MCF7 breast): 1370 nM
TGI (MCF7 breast): 2.91 µM
GI50 (SK-MEL-5 melanoma): 1.62 µM
TGI (SK-MEL-5 melanoma): 3.24 µM
GI50 (CAKI-1 renal): 3.13 µM
TGI (CAKI-1 renal): 13.4 µM

O=c1c(Cc2ccc3c(c2)OCO3)nnc2sc(-c3cc(F)c(Cl)cc3Cl)nn12
GI50 (NCI-H460 lung): 50.8 µM
TGI (NCI-H460 lung): > 100 µM
GI50 (SW-620 colon): 19400 nM
TGI (SW-620 colon): 49.1 µM
GI50 (SF-295 CNS): 72.5 µM
TGI (SF-295 CNS): > 100 µM
GI50 (U251 CNS): 35.7 µM
TGI (U251 CNS): > 100 µM
GI50 (MCF7 breast): 38900 nM
TGI (MCF7 breast): > 100 µM
GI50 (SK-MEL-5 melanoma): 19.3 µM
TGI (SK-MEL-5 melanoma): 50.7 µM

CC(C)C[C@@H](N)[C@@H](O)C(=O)N[C@H](C(=O)N[C@H](C(=O)N[C@@H](CC(=O)O)C(=O)O)C(C)C)C(C)C
GI50 (NCI-H460 lung): > 20 µM
TGI (NCI-H460 lung): > 20 µM
GI50 (SW-620 colon): > 20000 nM
TGI (SW-620 colon): > 20 µM
GI50 (SF-295 CNS): > 20 µM
TGI (SF-295 CNS): > 20 µM
GI50 (U251 CNS): > 20 µM
TGI (U251 CNS): > 20 µM
GI50 (MCF7 breast): > 20000 nM
TGI (MCF7 breast): > 20 µM
GI50 (SK-MEL-5 melanoma): > 20 µM
TGI (SK-MEL-5 melanoma): > 20 µM
GI50 (CAKI-1 renal): > 20 µM
TGI (CAKI-1 renal): > 20 µM

CN(C)CCC(=O)Nc1ccc(-n2cc(-c3cccc(NC(=S)Nc4cccc(-c5cn(-c6ccc(NC(=O)CCN(C)C)cc6)nn5)c4)c3)nn2)cc1
GI50 (NCI-H460 lung): 26.6 µM
TGI (NCI-H460 lung): 96.6 µM
GI50 (SR leukemia): 26.2 µM
TGI (SR leukemia): > 100 µM
GI50 (SW-620 colon): 4260 nM
TGI (SW-620 colon): > 100 µM
GI50 (SF-295 CNS): 20.2 µM
TGI (SF-295 CNS): 49 µM
GI50 (U251 CNS): 21.4 µM
TGI (U251 CNS): 80.8 µM
GI50 (MCF7 breast): 3250 nM
TGI (MCF7 breast): 40.3 µM
GI50 (SK-MEL-5 melanoma): 43.9 µM
TGI (SK-MEL-5 melanoma): > 100 µM
GI50 (CAKI-1 renal): > 100 µM
TGI (CAKI-1 renal): > 100 µM

CSc1nc(Nc2cccc(NC(=O)CCl)c2)c(C#N)c(-c2cccc([N+](=O)[O-])c2)n1
GI50 (NCI-H460 lung): 4.12 µM
TGI (NCI-H460 lung): 23.2 µM
GI50 (SR leukemia): 0.387 µM
TGI (SR leukemia): > 100 µM
GI50 (SW-620 colon): 1930 nM
TGI (SW-620 colon): 5.11 µM
GI50 (SF-295 CNS): 9.83 µM
TGI (SF-295 CNS): 36.4 µM
GI50 (U251 CNS): 1.6 µM
TGI (U251 CNS): 3.13 µM
GI50 (MCF7 breast): 740 nM
TGI (MCF7 breast): 2.44 µM
GI50 (SK-MEL-5 melanoma): 1.51 µM
TGI (SK-MEL-5 melanoma): 3.28 µM
GI50 (CAKI-1 renal): 2.12 µM
TGI (CAKI-1 renal): 10.4 µM

O=C1c2cccc3cccc(c23)C(=O)N1CCCCCN1CCN(CCN=c2cc3n(-c4ccc(Cl)cc4)c4ccccc4nc-3cc2Nc2ccc(Cl)cc2)CC1
GI50 (NCI-H460 lung): 13.2 µM
TGI (NCI-H460 lung): > 50 µM
GI50 (SR leukemia): 7.54 µM
TGI (SR leukemia): 25.4 µM
GI50 (SW-620 colon): 15300 nM
TGI (SW-620 colon): > 50 µM
GI50 (SF-295 CNS): 13 µM
TGI (SF-295 CNS): > 50 µM
GI50 (U251 CNS): 14.2 µM
TGI (U251 CNS): 40.3 µM
GI50 (MCF7 breast): 8240 nM
TGI (MCF7 breast): 38.4 µM
GI50 (SK-MEL-5 melanoma): 7.46 µM
TGI (SK-MEL-5 melanoma): 18.1 µM
GI50 (CAKI-1 renal): 6.33 µM
TGI (CAKI-1 renal): 20.5 µM
